The text below walks through data of paper PMC11357054, “Azobenzenesulfonamide Carbonic Anhydrase Inhibitors as New Weapons to Fight Helicobacter pylori: Synthesis, Bioactivity Evaluation, In Vivo Toxicity, and Computational Studies” (Pharmaceuticals, 2024).

pKi: −log10 of the molar value. ≈ marks a conversion by molar mass, not a printed value.

One test concerns T1, H. pylori ATCC 43504.
T1 construct: ATCC 43504
The test is described as follows: microbe, parasite or virus in culture. The conditions noted are these: Helicobacter pylori, ATCC43504. The arrangement: species or system Helicobacter pylori ATCC 43504; MIC by broth microdilution, alamarBlue and CFU count; MBC by CFU count. As for the experimental part: H. pylori ATCC 43504 was cultured on a Columbia Agar base (Becton Dickinson and Company, Franklin Lakes, NJ, USA) supplemented with 10% horse serum (Merck, St. Louis, MO, USA) and 0.25% yeast extract (Oxoid Ltd., Hampshire, UK), incubated at 37 °C for 72 h in a microaerophilic atmosphere (CampyGen, Thermo Fisher Scientific, Milan, Italy). Colonies were collected and transferred into 10 mL of Brain Heart Infusion broth (BHI, Oxoid Ltd., Hampshire, UK) supplemented with 5% (v/v) of fetal bovine serum (FBS, Merck, Milan, Italy) and incubated overnight at 37 °C, at 125 rpm under microaerophilic conditions. After 18 h of incubation, the broth culture was diluted to obtain a bacterial suspension of 10^6 CFU/mL. MICs were determined by three different assays: the broth micro-dilution method, the alamarBlue assay, and the CFU count. […] This bacterium was selected based on the inhibitory potency evidenced by the two series of azobenzenesulfonamides against the HpCAs.

Another test addresses T2, hCA II (Homo sapiens, UniProt P00918).
T2 construct: gene CA2; purchased from Merck
Put plainly: biochemical. The conditions noted are these: read-out: Human Isoforms / hCA II. On the procedure: (§1) An Applied Photophysics stopped-flow instrument was used to evaluate the ability of the test compounds to inhibit CA-catalyzed CO2 hydration. […] The CO2 concentrations ranged from 1.7 to 17 mM for the determination of the kinetic parameters and inhibition constants. Enzyme concentrations spanned from 5 to 12 nM. Stock solutions of the inhibitor (0.1 mM) were prepared in distilled–deionized water, and dilutions up to 0.01 nM were prepared with the assay buffer. Inhibitor and enzyme solutions were preincubated for 15 min at r.t. for the formation of the E–I complex. The inhibition constants were obtained by non-linear least-squares methods using PRISM 3 and the Cheng–Prusoff equation and represent the mean from at least three different determinations. Apart from human CAs I and II purchased from Merck, all the bacterial CAs were recombinant and obtained in-house. Compounds 4a–j and 5a–j were tested on a large panel of human and bacterial isoenzymes belonging to different CA families, evaluating their inhibitory activity through the CO2 hydration activity assay by means of the stopped-flow technique, and the inhibitory constants (KIs) are reported in Table 1 and Table 2, respectively. In particular, we tested the hypoxic tumor-associated hCAs IX and XII, and bacterial isoforms involved in several infectious diseases, such as those caused by H. pylori (HpαCA and HpβCA), Porphyromonas gingivalis (PgiβCA and PgiγCA), Escherichia coli (EcoβCA), Pseudomonas aeruginosa (PsCA3, belonging to the β-class), Mammaliicoccus (Staphylococcus) sciuri (MscCA, belonging to the β-class), and Streptococcus mutans (SmuCA, belonging to the β-class). The inhibition of human physiologically relevant isoforms I and II was also investigated in order to assess the compounds’ selectivity. Our main aim was to rationalize the structural requirements of sulfonamide-containing compounds useful for targeting HpCAs, in order to gain a larger knowledge for further optimization studies focusing on isoform selectivity. In fact, although the tested human and bacterial isoforms present a low degree of sequence similarity, they catalyze the same reaction and contain the catalytically active zinc ion in the active site. Thus, a comparison of the data obtained from different members of this large superfamily has a high relevance in the field. By observing Table 1 and Table 2, interesting structure–activity relationship (SAR) considerations can be inferred.

Another test concerns the target T3, PsCA3 (Pseudomonas aeruginosa, UniProt Q9HVB9).
T3 construct: gene PA4676; recombinant, obtained in-house
T3 sequence (Q9HVB9 1-215): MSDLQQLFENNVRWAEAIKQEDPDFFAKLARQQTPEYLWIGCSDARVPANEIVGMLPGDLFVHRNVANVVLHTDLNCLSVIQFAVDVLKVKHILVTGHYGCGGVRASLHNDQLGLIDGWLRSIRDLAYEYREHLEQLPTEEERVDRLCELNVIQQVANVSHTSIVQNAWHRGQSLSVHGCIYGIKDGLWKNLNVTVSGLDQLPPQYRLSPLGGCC
Put plainly: biochemical. The conditions noted are these: read-out: Bacterial Isoforms / Ps CA3. On the procedure:
as §1

In the next test the target is T4, hCA IX (Homo sapiens, UniProt Q16790).
T4 construct: gene CA9
Put plainly: biochemical. The conditions noted are these: read-out: Human Isoforms / hCA IX. As for the experimental part:
as §1

The target of the next test is T5, hCA XII (Homo sapiens, UniProt O43570).
T5 construct: gene CA12
The test is described as follows: biochemical. The conditions noted are these: read-out: Human Isoforms / hCA XII. On the procedure:
as §1

The next test has as its target T6, hCA I (Homo sapiens, UniProt P00915).
T6 construct: gene CA1; purchased from Merck
Put plainly: biochemical. The conditions noted are these: read-out: Human Isoforms / hCA I. On the procedure:
as §1

A further test has as its target T7, EcoβCA (Escherichia coli, UniProt P61517).
T7 construct: gene can; recombinant, obtained in-house
The test is described as follows: biochemical. The conditions noted are these: read-out: Bacterial Isoforms / Eco βCA. On the procedure:
as §1

A further test has as its target T8, HpαCA (Helicobacter pylori, UniProt B5Z8I0).
T8 construct: gene HPG27_1129; recombinant, obtained in-house; PDB 4XFW is given for docking only
T8 sequence (B5Z8I0 22-247): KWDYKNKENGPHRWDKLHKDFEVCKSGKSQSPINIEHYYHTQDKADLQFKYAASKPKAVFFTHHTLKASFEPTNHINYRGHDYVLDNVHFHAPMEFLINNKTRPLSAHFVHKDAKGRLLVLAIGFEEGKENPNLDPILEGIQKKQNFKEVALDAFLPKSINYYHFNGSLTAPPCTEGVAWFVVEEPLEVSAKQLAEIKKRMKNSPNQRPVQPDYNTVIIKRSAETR
The test is described as follows: stopped-flow CO2 hydration. Format: biochemical. The conditions noted are these: read-out: KI (nM) / Bacterial Isoforms / Hp αCA.

T7 sequence (P61517 whole entry): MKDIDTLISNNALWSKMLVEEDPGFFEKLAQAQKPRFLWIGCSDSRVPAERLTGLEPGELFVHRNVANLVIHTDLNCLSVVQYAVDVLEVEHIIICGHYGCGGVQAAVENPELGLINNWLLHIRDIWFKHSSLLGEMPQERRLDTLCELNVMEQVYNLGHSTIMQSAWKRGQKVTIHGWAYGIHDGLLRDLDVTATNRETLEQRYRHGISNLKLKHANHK
T6 sequence (P00915 2-261): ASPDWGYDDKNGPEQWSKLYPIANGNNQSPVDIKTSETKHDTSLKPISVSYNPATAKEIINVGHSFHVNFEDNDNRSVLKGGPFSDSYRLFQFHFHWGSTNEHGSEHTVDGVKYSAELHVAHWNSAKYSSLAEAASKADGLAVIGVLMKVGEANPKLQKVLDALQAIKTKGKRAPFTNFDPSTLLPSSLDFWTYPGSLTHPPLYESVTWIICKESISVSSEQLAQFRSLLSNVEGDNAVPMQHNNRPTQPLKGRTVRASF
T5 sequence (O43570 30-289 limits assumed): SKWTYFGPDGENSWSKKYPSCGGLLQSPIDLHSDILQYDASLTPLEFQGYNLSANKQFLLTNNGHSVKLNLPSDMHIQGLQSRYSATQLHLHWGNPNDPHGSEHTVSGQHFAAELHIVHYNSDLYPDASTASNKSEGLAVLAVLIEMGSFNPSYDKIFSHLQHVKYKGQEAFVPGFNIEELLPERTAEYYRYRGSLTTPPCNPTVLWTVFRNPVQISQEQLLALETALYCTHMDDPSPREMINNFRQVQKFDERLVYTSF

The molecule `Cc1ccc(S(=O)(=O)Nc2ccc(N=Nc3ccccc3)cc2)cc1[N+](=O)[O-]` [5e] returned an MBC against H. pylori ATCC 43504 of 16 µg/mL (≈ 40.4 µM). This molecule displayed an MIC in the test with H. pylori ATCC 43504 of 8 µg/mL (≈ 20.2 µM). Besides, the pKi is below 4.00 at hCA II; below 4.00 on PsCA3; 6.10 at hCA IX; 6.07 on hCA XII; 6.07 on hCA I; 4.23 at EcoβCA. Moreover, the Ki at HpαCA amounted to 604 nM.

As for `COc1ccc(S(=O)(=O)Nc2ccc(N=Nc3ccccc3)cc2)c(OC)c1` [5f], the MBC in the test on H. pylori ATCC 43504 was determined as 4 µg/mL (≈ 10.1 µM). The MIC in the test on H. pylori ATCC 43504 was found to be 4 µg/mL (≈ 10.1 µM). The pKi on hCA II is below 4.00; at PsCA3, below 4.00; on hCA IX it was 5.24; at hCA XII, 6.05; at hCA I, 6.04; on EcoβCA, 4.11. Besides, the Ki on HpαCA stood at 71.3 nM.

In the test with H. pylori ATCC 43504, `O=S(=O)(Nc1ccc(N=Nc2ccccc2)cc1)c1ccc(Cl)s1` [5g] registered an MBC of 16 µg/mL (≈ 42.3 µM). This molecule also showed an MIC against H. pylori ATCC 43504 of 16 µg/mL (≈ 42.3 µM). The pKi at hCA II was below 4.00; at PsCA3, below 4.00; on hCA IX it was 5.39; at hCA XII it was 5.39; at hCA I, 6.04; at EcoβCA, 4.23. The Ki on HpαCA is 55.8 nM.

The molecule `O=S(=O)(Cc1ccccc1)Nc1ccc(N=Nc2ccccc2)cc1` [5h] showed an MBC with H. pylori ATCC 43504 of 128 µg/mL (≈ 364 µM). Besides, in the test on H. pylori ATCC 43504, the MIC is 64 µg/mL (≈ 182 µM). The pKi was below 4.00 at hCA II; below 4.00 at PsCA3; 5.35 on hCA IX; 5.65 on hCA XII; 5.26 on hCA I; 4.05 at EcoβCA. At HpαCA, the Ki was found to be 79 nM.

In the case of `CCS(=O)(=O)Nc1ccc(N=Nc2ccccc2)cc1` [5j], the MBC against H. pylori ATCC 43504 is 16 µg/mL (≈ 55.3 µM). In addition, in the test with H. pylori ATCC 43504, the MIC amounted to 16 µg/mL (≈ 55.3 µM). Moreover, the pKi is below 4.00 at hCA II; 4.16 on PsCA3; 5.15 at hCA IX; 5.48 at hCA XII; 6.03 on hCA I; below 4.00 at EcoβCA. Moreover, the Ki at HpαCA amounted to 68.4 nM.
